Results as given in patent US10414754B2, “Indolizine compounds, a process for their preparation and pharmaceutical compositions containing them” (LES LABORATOIRES SERVIER, priority 2013, dated 2019).
Where a name gives a salt, the structure may show the parent alone.

What was measured:
[1] = test system: RS4;11 leukaemia tumour line; assay: In vitro cytotoxicity (MTT) on RS4;11; assay type: cell-based; settings: Homo sapiens; RS4;11 cells, 48 hours exposure
Procedure: The cytotoxicity studies were carried out on the RS4;11 leukaemia tumour line.
The cells are distributed onto microplates and exposed to the test compounds for 48 hours.
The cell viability is then quantified by a colorimetric assay, the Microculture Tetrazolium Assay (Cancer Res., 1987, 47, 939-942).

Bcl-2 protein = target: T1, Bcl-2 protein (histag-Bcl-2, UniProtKB P10415) (Homo sapiens, UniProt P10415); assay: Inhibition of Bcl-2 by the fluorescence polarisation technique; assay type: binding; settings: fluorescence polarisation, 2 hours incubation; read-out: IC50 (nM) Bcl-2 FP
T1 construct: His tag
Procedure, shortened: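 Fluorescence polarisation competition: His-tagged human Bcl-2 (2.50×10^−8 M final) was mixed with fluorescein-labelled peptide (1.00×10^−8 M final) and increasing compound concentrations. Buffer was 10 mM Hepes, 150 mM NaCl, 0.05% Tween20, pH 7.4. Polarisation was read after 2 h.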

T1 sequence (P10415 whole entry): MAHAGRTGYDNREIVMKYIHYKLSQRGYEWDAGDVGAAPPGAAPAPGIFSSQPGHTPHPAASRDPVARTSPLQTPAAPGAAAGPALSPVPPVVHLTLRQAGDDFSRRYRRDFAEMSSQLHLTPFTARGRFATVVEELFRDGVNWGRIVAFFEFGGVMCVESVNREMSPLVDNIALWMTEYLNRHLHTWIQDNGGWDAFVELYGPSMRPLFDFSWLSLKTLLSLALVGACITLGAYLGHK

IC50 (Bcl-2 protein) | Structure (SMILES) | IC50 [1]
12.6 nM | C[C@@H]1Cc2ccccc2CN1C(=O)c1cc2c(cc1-c1cc(C(=O)N(c3ccc(O)cc3)c3ccc(CCN4CCC(F)(F)C4)cc3)c3ccccn13)OCO2 [Example 36, N-{4-[2-(3,3-Difluoropyrrolidin-1-yl)ethyl]phenyl}-N-(4-hydroxyphenyl)-3-(6-{[(3R)-3-methyl-3,4-dihydroisoquinolin-2(1,H)-yl]carbonyl}-1,3-benzodioxol-5-yl)indolizine-1-carboxamide hydrochloride] | 49.7 nM
5.4 nM | C[C@@H]1Cc2ccccc2CN1C(=O)c1cc2c(cc1-c1cc(C(=O)N(c3ccc(O)cc3)c3ccc4ncccc4c3)c3ccccn13)OCO2 [Example 31, N-(4-Hydroxyphenyl)-3-(6-{[(3R)-3-methyl-3,4-dihydroisoquinolin-2(1H)-yl]carbonyl}-1,3-benzodioxol-5-yl)-N-(quinolin-6-yl)indolizine-1-carboxamide hydrochloride] | 13.7 nM
3.4 nM | C[C@@H]1Cc2ccccc2CN1C(=O)c1cc2c(cc1-c1cc(C(=O)N(c3ccc(O)cc3)c3ccc(OCCN4CCOCC4)c(F)c3)c3ccccn13)OCO2 [Example 17, N-{3-Fluoro-4-[2-(morpholin-4-yl)ethoxy]phenyl}-N-(4-hydroxyphenyl)-3-(6-{[(3R)-3-methyl-3,4-dihydroisoquinolin-2(1H)-yl]carbonyl}-1,3-benzodioxol-5-yl)indolizine-1-carboxamide hydrochloride] | 11.8 nM

Further lines, the compound ahead of its results:

Structure (SMILES) | IC50 (Bcl-2 protein) | IC50 [1]
O=C(c1cc(-c2ccccc2C(=O)N2Cc3ccccc3C[C@H]2CCN2CCOCC2)n2c1CCCC2)N(c1ccccc1)c1ccc(O)cc1 [Example 20, N-(4-Hydroxyphenyl)-3-(2-{[(3S)-3-[2-(morpholin-4-yl)ethyl]-3,4-dihydroisoquinolin-2(1H)-yl]carbonyl}phenyl)-N-phenyl-5,6,7,8-tetrahydroindolizine-1-carboxamide hydrochloride] | 11.1 nM | 205 nM
C[C@@H]1Cc2ccccc2CN1C(=O)c1cc2c(cc1-c1cc(C(=O)N(c3ccc(O)cc3)c3ccc4c(ccn4CCN4CCOCC4)c3)c3n1CCCC3)OCO2 [Example 2, N-(4-Hydroxyphenyl)-3-(6-{[(3R)-3-methyl-3,4-dihydroisoquinolin-2(1H)-yl]carbonyl}-1,3-benzodioxol-5-yl)-N-{1-[2-(morpholin-4-yl)ethyl]-1H-indol-5-yl}-5,6,7,8-tetrahydroindolizine-1-carboxamide hydrochloride] | 17 nM | 36 nM
O=C(c1cc(-c2cc3c(cc2C(=O)N2Cc4ccccc4C[C@H]2CO)OCO3)n2c1CCCC2)N(c1ccccc1)c1ccc(O)cc1 [Example 16, 3-(6-{[(3S)-3-(Hydroxymethyl)-3,4-dihydroisoquinolin-2(1H)-yl]-carbonyl}-1,3-benzodioxol-5-yl)-N-(4-hydroxyphenyl)-N-phenyl-5,6,7,8-tetrahydro-indolizine-1-carboxamide] | 7.5 nM | 252 nM
Cc1cc(N(C(=O)c2cc(-c3cc4c(cc3C(=O)N3Cc5ccccc5C[C@H]3C)OCO4)n3ccccc23)c2ccc(O)cc2)cc(C)n1 [Example 39, N-(2,6-Dimethylpyridin-4-yl)-N-(4-hydroxyphenyl)-3-(6-{[(3R)-3-methyl-3,4-dihydroisoquinolin-2(1H)-yl]carbonyl}-1,3-benzodioxol-5-yl)indolizine-1-carboxamide hydrochloride] | 4.6 nM | 26.3 nM
C[C@@H]1Cc2ccccc2CN1C(=O)c1cc2c(cc1-c1cc(C(=O)N(c3ccc(O)cc3)c3ccc4c(ccn4C)c3)c3n1CCCC3)OCO2 [Example 1, N-(4-Hydroxyphenyl)-3-(6-{[(3R)-3-methyl-3,4-dihydroisoquinolin-2(1H)-yl]carbonyl}-1,3-benzodioxol-5-yl)-N-(1-methyl-1H-indol-5-yl)-5,6,7,8-tetrahydro-indolizine-1-carboxamide] | 17.9 nM | 11.3 nM
